How the values were obtained:
C57BL/6J mice = experiment: Extended study in geriatric C57BL/6J mice (biochemistry, function, necropsy, cytokines, SA-β-gal in organs); format: in vivo, mouse
Method: Sections were prepared from organs and ear biopsies from snap‐frozen tissues and mounted on SuperFrost Plus slides (VWR). SA‐β‐gal staining was performed according to the manufacturer's instructions for the Sigma‐Aldrich‐QIA117 staining kit (Sigma‐Aldrich). Nuclei were counterstained with Nuclear Fast Red (Sigma‐Aldrich), and images were acquired using a Zeiss AxioCam HRc mounted on a Leitz Laborlux S light microscope. The percentage of senescent cells was determined with QuPath v. 0.3.2 (Bankhead et al. [2017]).
All experiments were performed per the European Community Council Directives of 2010/63/UE. The pilot study (PS) investigated safety and potential senolytic efficacy, and the Extended study (ES) investigated functional changes, pathological phenotype, and the principal organ targeted by K5. Protocols were approved according to current Italian law (D.Lgs. n. 26/2014) by OPBA (animal care and health committee) of IRCCS INRCA and by the General Direction of Animal Health and Veterinary Drugs of the Italian Ministry of Health with authorization n°‐137/2021‐PR for PS and authorization n°‐370/2022‐PR for ES. In the PS of p16‐3MR mice (26 months), bioluminescence associated with p16‐expression was monitored before and after treatment, and the health of the mice was longitudinally studied. The ES used geriatric C57BL/6J mice (31 months). Clinical health and physical performance were analyzed before and after K5 treatment. Subsequently, the animals were euthanized, gross necropsies were performed, and organs were collected for further analysis. Detailed protocols are reported in the extended section.
Blood samples were collected from the right retroorbital plexus. Glucose (GLUC), creatinine (CREA), aspartate aminotransferase (AST/GOT), and alanine aminotransferase (ALT/GPT) were determined in EDTA‐plasma by using an automated analyzer (Cobas Mira, Roche) according to the manufacturer's instructions. Cytokines were measured in EDTA‐plasma using the ProcartaPlex Mouse Cytokine & Chemokine Panel 1, 26plex (Thermofisher) and read in the Luminex 200 instrument (Bio‐Rad), following the producer's recommendation.
We measured the clinical frailty index (CFI), Clinical Health Score (CHS), Physical Function Score (PFS), and Vitality Score (VS) in mice, as previously described (Marcozzi et al. [2023]). All frailty measurements were performed in a dedicated INRCA SPF animal facility area. The CFI score for each mouse was calculated as previously published (Whitehead et al. [2014]). The VS was obtained by calculating the arithmetic mean of the individual values of CHS and PFS. Several tests were assessed for endurance and speed Scores; details are reported in the extended methods.
For aged tissues: 10 μm-thick tissue sections were prepared from nine organs (liver, heart, lung, kidney, quadriceps, gastrocnemius, brain cortex, cerebellum, and hippocampus) and ear biopsies with a cryostat from snap-frozen tissues and mounted on SuperFrost Plus slides (VWR, Radnor, PA, USA). SA-β-gal staining was performed according to the manufacturer's instructions of the Sigma-Aldrich-QIA117 staining kit (Sigma-Aldrich, St. Louis, MO, USA). Nuclei were counterstained with Nuclear Fast Red (NFR) (Sigma-Aldrich, St. Louis, MO, USA), and images (from […] sections) were acquired using a Zeiss AxioCam HRc mounted on a Leitz Laborlux S light microscope. The percentage of senescent cells was determined as the mean of 3–4 images from each tissue section by counting the total and SA-β-gal-positive cells with the positive cell detection tool available in the open-source software for digital image analysis, QuPath v. 0.3.2 (Bankhead et al. 2017).
In the extended study, more geriatric C57BL/6J mice were used to confirm safety and investigate the main organs targeted by K5 (Fig. S5). For this purpose, 26 geriatric mice (14 males, 12 females, aged 31 months) and 24 geriatric mice (13 males, 11 females, and 31 months) were treated with K5 and the Vehicle. […]

IMR90 cells = experiment: SA-β-galactosidase colorimetric assay on senescent IMR90; format: cell-based, Homo sapiens
Method: Previously treated cells were fixed according to the protocols established by the supplier (Cell Signaling). The images were acquired using an optical microscope (Leica) with 5× and 10× magnification (MAG) or the phase microscopy EVOS XL Core at 10× MAG and analyzed using the ImageJ software. The mean signal intensity was then normalized for the total number of cells.
β-galactosidase colorimetric assay. For cell cultures: Previously treated cells were fixed with the fixative solution for 10 min at RT according to the protocols established by the supplier (Senescence β-Galactosidase Staining Kit, #9860S, Cell Signaling, Danvers, MA, USA) Cells were then incubated with the substrate, X-gal, in a solution at pH 6, at 37°C, overnight (16 h) (Itahana et al. 2007). The images were acquired using an optical microscope (Leica, Wetzlar, Germany) with 5 and 10X magnification or the phase microscopy EVOS XL Core at 10X magnification. The images were analyzed using the ImageJ software, quantifying the colorimetric signal emitted by each cell. The mean signal intensity was then normalized for the total number of cells.

[1] = geriatric C57BL/6J mice, vs control

In the case of Cc1ccccc1-n1c(=O)n(Cc2ccccc2)c(=O)c2[nH]cnc21 [Compound K5, 1-benzyl-3-(2-methylphenyl)-7H-purine-2,6-dione], the body weight (C57BL/6J mice; geriatric C57BL/6J mice, throughout the treatment period) is reported as “remained stable”, the “plasma levels of glucose, creatinine, GOT, and GPT, treated vs control” value (C57BL/6J mice; geriatric C57BL/6J mice, two rounds of three injections) is reported as “no significant differences” and the “SA-β-gal staining in the liver” value (C57BL/6J mice; [1]) is reported as “significantly reduced staining”. The “SA-β-gal staining in the pancreas” value (C57BL/6J mice; [1]) was “significantly reduced staining”, the “circulating IL-1β” value (C57BL/6J mice; geriatric C57BL/6J mice, vs controls) was “significant reduction” and the “Physical Function Score vs control” value (C57BL/6J mice; treated male mice) was “significant increase”. The “Vitality Score vs control” value (C57BL/6J mice; treated male mice) was “significant increase”, the “tumor incidence at gross necropsy” value (C57BL/6J mice; treated male mice) was “lower incidence of tumors” and the “reduced SA-β-gal+ cells” value (IMR90 cells) was 20%.

Reference: paper PMC12266748, “A Xanthine Derivative With Novel Heat Shock Protein 90‐Alpha Inhibitory and Senolytic Properties” (Aging Cell, 2025)
